Where two headings read alike, the source gives them in different places.
What was measured:
hMAO-A = target: T1, hMAO-A (Homo sapiens, UniProt P21397); assay: hMAO-A inhibitory activity assay (recombinant enzyme, kynuramine substrate); format: biochemical; settings: kynuramine 0.06 mM; for remaining activity at 10 µM: 10 µM compound, read-out: Residual activity at 10 µM (%) hMAO-A
T1 construct: purchased Sigma-Aldrich (St. Louis, MO, USA)
T1 sequence (P21397 1-527): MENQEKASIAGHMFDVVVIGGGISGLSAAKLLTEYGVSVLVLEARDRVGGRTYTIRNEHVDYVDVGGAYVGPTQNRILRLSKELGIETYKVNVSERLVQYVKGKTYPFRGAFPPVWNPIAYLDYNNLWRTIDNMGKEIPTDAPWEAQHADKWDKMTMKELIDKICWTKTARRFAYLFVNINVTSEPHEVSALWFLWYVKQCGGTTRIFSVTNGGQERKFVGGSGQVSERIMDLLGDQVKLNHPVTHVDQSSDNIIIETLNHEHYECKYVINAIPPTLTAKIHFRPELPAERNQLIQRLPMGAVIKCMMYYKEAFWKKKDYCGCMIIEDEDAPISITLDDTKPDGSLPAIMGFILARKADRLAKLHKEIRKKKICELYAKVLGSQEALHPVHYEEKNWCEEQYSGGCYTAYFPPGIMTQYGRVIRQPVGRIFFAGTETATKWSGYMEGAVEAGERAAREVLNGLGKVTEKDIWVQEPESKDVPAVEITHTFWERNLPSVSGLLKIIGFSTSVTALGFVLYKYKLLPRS

hMAO-B [1] = target: T2, hMAO-B (Homo sapiens, UniProt P27338); assay: hMAO-B inhibitory activity assay (recombinant enzyme, benzylamine substrate); settings: for SI (selectivity index for hMAO-B as compared with hMAO-A): IC50 of hMAO-A/IC50 of hMAO-B; for remaining activity at 10 µM: read-out: Residual activity at 10 µM (%) hMAO-B;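 on all read-outs here: benzylamine used at 0.3 mM as hMAO-B substrate, compounds first screened at 10 µM, hMAO-A assayed with 0.06 mM kynuramine for the selectivity ratio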
T2 sequence (P27338 1-520): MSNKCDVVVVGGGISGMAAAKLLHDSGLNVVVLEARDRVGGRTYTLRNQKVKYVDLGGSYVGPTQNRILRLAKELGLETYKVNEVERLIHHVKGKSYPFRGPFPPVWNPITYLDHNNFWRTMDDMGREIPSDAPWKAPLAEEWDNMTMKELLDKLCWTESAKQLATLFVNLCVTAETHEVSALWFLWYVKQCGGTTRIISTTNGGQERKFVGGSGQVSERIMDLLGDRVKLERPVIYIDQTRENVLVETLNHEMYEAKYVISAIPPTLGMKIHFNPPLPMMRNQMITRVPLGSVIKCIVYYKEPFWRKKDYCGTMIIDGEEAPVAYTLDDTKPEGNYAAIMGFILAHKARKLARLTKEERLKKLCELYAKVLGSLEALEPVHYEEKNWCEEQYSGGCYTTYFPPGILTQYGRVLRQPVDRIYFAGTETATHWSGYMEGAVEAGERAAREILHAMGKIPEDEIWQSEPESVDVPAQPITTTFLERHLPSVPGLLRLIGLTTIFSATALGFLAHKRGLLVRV

hMAO-B [2] = target: T2, hMAO-B
[3] = parameters: method as in PMID 26587996; settings: cited from earlier work
hMAO-B [4] = target: T2, hMAO-B; assay: Reversibility analysis of hMAO-B inhibition by dialysis; format: biochemical; parameters: purchased Sigma-Aldrich (St. Louis, MO, USA); settings: for Reversibility of hMAO-B inhibition: dialysis; for Relative activity of hMAO-B, undialyzed (AU) / Relative activity of hMAO-B, dialyzed (AD): preincubation 30 min at ~2 × IC50 (B10 0.134, B15 0.240, lazabemide 0.220, pargyline 0.280 μM); for Relative activity of hMAO-B, dialyzed (AD): after dialysis
[5] = Parallel artificial membrane permeation assay (PAMPA) for BBB permeation; format: in vitro ADME; settings: for Papp: pH 7.4, read-out: Experimental Pe
hMAO-B [6] = target: T2, hMAO-B; assay: Enzyme kinetic study of hMAO-B inhibition (Lineweaver–Burk and secondary plots); format: biochemical; parameters: purchased Sigma-Aldrich (St. Louis, MO, USA); settings: for Type of hMAO-B inhibition: Lineweaver–Burk plots; for Ki: secondary plots, five substrate and three inhibitor concentrations

| Structure (SMILES) | remaining activity at 10 µM (hMAO-A) [%] | IC50 (hMAO-A) [µM] | IC50 (hMAO-B [1]) [µM] | SI (selectivity index for hMAO-B as compared with hMAO-A) (hMAO-B [1]) | remaining activity at 10 µM (hMAO-B [1]) [%] | SI (selectivity index for hMAO-B as compared with hMAO-A) (hMAO-B [2]) | bioavailability [3] | Reversibility of hMAO-B inhibition (hMAO-B [4]) | Relative activity of hMAO-B, undialyzed (AU) (hMAO-B [4]) [%] | Relative activity of hMAO-B, dialyzed (AD) (hMAO-B [4]) [%] | Pe value [5] | Prediction (CNS permeation) [5] | Papp [5] [nm/s] | Type of hMAO-B inhibition (hMAO-B [6]) | Ki (hMAO-B [6]) [µM] |
| --- | --- | --- | --- | --- | --- | --- | --- | --- | --- | --- | --- | --- | --- | --- | --- |
| O=C(/C=C/c1ccc(OCc2ccccc2)cc1)c1ccc2c(c1)OCCO2 [Compound B3] | 58.3 ± 0.84 | 14.3 ± 0.203 | 0.261 ± 0.016 | 54.663 | 0 | – | – | – | – | – | – | – | – | – | – |
| O=C(/C=C/c1ccc(OCc2ccccc2)cc1)c1ccc2c(c1)OCO2 [Compound B2] | 53.1 ± 1.58 | 13.7 ± 1.53 | 0.626 ± 0.296 | – | 23.6 ± 0.96 | 21.933 | – | – | – | – | – | – | – | – | – |
| O=C(/C=C/c1ccccc1OCc1ccccc1)c1cccs1 [Compound B11] | 81.3 ± 2.92 | > 40 | 5.78 ± 2.39 | > 6.915 | 41.2 ± 0.12 | – | – | – | – | – | – | – | – | – | – |
| C[C@H](NCc1ccc(OCc2cccc(F)c2)cc1)C(N)=O [Safinamide] | – | – | – | – | – | – | about 95% | – | – | – | – | – | – | – | – |
| O=C(/C=C/c1ccc(OCc2ccccc2)cc1)c1ccc(Br)s1 [Compound B9] | 69.1 ± 1.54 | 24 ± 1.44 | 0.236 ± 0.017 | 101.551 | 0 | – | – | – | – | – | – | – | – | – | – |
| CCOc1ccc(C(=O)/C=C/c2ccccc2OCc2ccccc2)cc1 [Compound B14] | 91.2 ± 6.2 | > 40 | 11.3 ± 0.331 | > 3.525 | 51.9 ± 1.31 | – | – | – | – | – | – | – | – | – | – |
| CCOc1ccc(C(=O)/C=C/c2ccc(OCc3ccccc3)cc2)cc1 [Compound B15] | 75.9 ± 3.1 | 34.5 ± 3.54 | 0.12 ± 0.01 | 287.600 | 0 | – | – | reversible inhibitors of hMAO-B | 41.68 | 78.78 | higher than 4.0 × 10^–6 cm/s | CNS + (Pe (10^−6 cm/s) > 4.00: CNS + (high permeation)) | 40.9 ± 2.4 | competitive inhibitors of hMAO-B | 0.033 ± 0.001 |
| CSc1ccc(C(=O)/C=C/c2ccc(OCc3ccccc3)cc2)cc1 [Compound B7] | 58.4 ± 4.48 | 12.6 ± 0.898 | 0.149 ± 0.006 | 84.544 | 0 | – | – | – | – | – | – | – | – | – | – |
| CSc1ccc(C(=O)/C=C/c2ccccc2OCc2ccccc2)cc1 [Compound B6] | 92 ± 2.93 | > 40 | 6.55 ± 1.34 | > 6.107 | 41.3 ± 4.9 | – | – | – | – | – | – | – | – | – | – |
| O=C(/C=C/c1ccc(OCc2ccccc2)cc1)c1cccs1 [Compound B10] | 76.7 ± 3.22 | 33.8 ± 6.89 | 0.067 ± 0.005 | 504.791 | 0 | – | – | reversible inhibitors of hMAO-B | 44.29 | 77.53 | higher than 4.0 × 10^–6 cm/s | CNS + (Pe (10^−6 cm/s) > 4.00: CNS + (high permeation)) | 49.3 ± 1.3 | competitive inhibitors of hMAO-B | 0.03 ± 0.001 |
| CS(=O)(=O)c1ccc(C(=O)/C=C/c2ccccc2OCc2ccccc2)cc1 [Compound B4] | 78.2 ± 4.32 | 29.4 ± 2.71 | 0.233 ± 0.11 | 125.915 | 16.2 ± 6.49 | – | – | – | – | – | – | – | – | – | – |
| CS(=O)(=O)c1ccc(C(=O)/C=C/c2ccc(OCc3ccccc3)cc2)cc1 [Compound B5] | 89.2 ± 4.47 | > 40 | 0.224 ± 0.082 | > 178.651 | 0 | – | – | – | – | – | – | – | – | – | – |
| C#CCN(C)[C@H](C)Cc1ccccc1 [Selegiline, reference compound] | – | – | – | – | – | – | – | – | – | – | – | CNS + (Pe (10^−6 cm/s) > 4.00: CNS + (high permeation)) | – | – | – |
| O=C(/C=C/c1ccccc1OCc1ccccc1)c1ccc2c(c1)OCO2 [Compound B1] | 82.6 ± 5.03 | 26.9 ± 4.16 | 1.44 ± 0.149 | 18.677 | 35.5 ± 6.05 | – | – | – | – | – | – | – | – | – | – |
| O=C(/C=C/c1ccc(OCc2ccccc2)cc1)c1ccc(C(F)(F)F)cc1 [Compound B13] | 99.1 ± 1.24 | > 40 | 0.255 ± 0.016 | > 156.617 | 1.39 ± 3.27 | – | – | – | – | – | – | – | – | – | – |
| O=C(/C=C/c1ccccc1OCc1ccccc1)c1ccc(Br)s1 [Compound B8] | 92.45 ± 0.49 | > 40 | 17.9 ± 0.268 | > 2.237 | 64.4 ± 1.5 | – | – | – | – | – | – | – | – | – | – |
| O=C(/C=C/c1ccccc1OCc1ccccc1)c1ccc(C(F)(F)F)cc1 [Compound B12] | 86.7 ± 2.68 | > 40 | 37.6 ± 1.88 | > 1.065 | 75.4 ± 3.6 | – | – | – | – | – | – | – | – | – | – |

— publication PMC9794710, “Introduction of benzyloxy pharmacophore into aryl/heteroaryl chalcone motifs as a new class of monoamine oxidase B inhibitors” (Scientific Reports, 2022)
